Measured values: ChEMBL document CHEMBL1137641, “Influence of inoculum size on the selection of resistant mutants of Escherichia coli in relation to mutant prevention concentrations of marbofloxacin” (2007)
≈ marks a conversion by molar mass, not a printed value.

Experiments:
Type in all cases: functional
[1] = T>MIC in Escherichia coli ATCC 25922 at time with in mutant selection window of 0%
Escherichia coli [2] = test: Bactericidal activity against marbofloxacin-susceptible Escherichia coli ATCC 25922 assessed as final bacterial count using inoculum size of 10^9CFU/mL inside the mutant selection window for 0% of time
Escherichia coli [3] = test: Bactericidal activity against marbofloxacin-susceptible Escherichia coli ATCC 25922 assessed as area between the control curve and time kill curve using inoculum size of 10^9 CFU/mL inside the mutant selection window for 0% of time
Escherichia coli [4] = test: Bactericidal activity against marbofloxacin-susceptible Escherichia coli ATCC 25922 assessed as final bacterial count using inoculum size of 10^7 CFU/mL inside the mutant selection window for 100% of time
Escherichia coli [5] = test: Bactericidal activity against marbofloxacin-susceptible Escherichia coli ATCC 25922 assessed as area between the control curve and time kill curve using inoculum size of 10^9 CFU/mL inside the mutant selection window for 25% of time
Escherichia coli [6] = test: Bactericidal activity against marbofloxacin-susceptible Escherichia coli ATCC 25922 assessed as area between the control curve and time kill curve using inoculum size of 10^7 CFU/mL inside the mutant selection window for 25% of time
[7] = T>MIC in Escherichia coli ATCC 25922 at time with in mutant selection window of 25%
Escherichia coli [8] = test: Bactericidal activity against marbofloxacin-susceptible Escherichia coli ATCC 25922 assessed as area between the control curve and time kill curve using inoculum size of 10^5 CFU/mL inside the mutant selection window for 0% of time
Escherichia coli [9] = test: Bactericidal activity against marbofloxacin-susceptible Escherichia coli ATCC 25922 assessed as area between the control curve and time kill curve using inoculum size of 10^7 CFU/mL inside the mutant selection window for 100% of time
Escherichia coli [10] = test: Bactericidal activity against marbofloxacin-susceptible Escherichia coli ATCC 25922 assessed as final bacterial count using inoculum size of 10^5 CFU/mL inside the mutant selection window for 25% of time
Escherichia coli [11] = test: Bactericidal activity against marbofloxacin-susceptible Escherichia coli ATCC 25922 assessed as final bacterial count using inoculum size of 10^7 CFU/mL inside the mutant selection window for 0% of time
Escherichia coli [12] = test: Antibacterial activity against Escherichia coli ATCC 25922 by microdilution method
[13] = Effect on Escherichia coli ATCC 25922 assessed as time at which drug concentration above the mutant prevention concentration at time with in mutant selection window of 25%
Escherichia coli [14] = test: Bactericidal activity against marbofloxacin-resistant Escherichia coli ATCC 25922 assessed as final bacterial count using inoculum size of 10^5 CFU/mL inside the mutant selection window for 100% of time
Escherichia coli [15] = test: Bactericidal activity against marbofloxacin-susceptible Escherichia coli ATCC 25922 assessed as final bacterial count using inoculum size of 10^5 CFU/mL inside the mutant selection window for 0% of time
Escherichia coli [16] = test: Bactericidal activity against marbofloxacin-susceptible Escherichia coli ATCC 25922 assessed as area between the control curve and time kill curve using inoculum size of 10^7 CFU/mL inside the mutant selection window for 0% of time
Escherichia coli [17] = test: Bactericidal activity against marbofloxacin-susceptible Escherichia coli ATCC 25922 assessed as area between the control curve and time kill curve using inoculum size of 10^5 CFU/mL inside the mutant selection window for 25% of time
Escherichia coli [18] = test: Antibacterial activity against Escherichia coli ATCC 25922 assessed as mutant prevention concentration after 24 hrs by agar dilution method
[19] = Effect on Escherichia coli ATCC 25922 assessed as time at which drug concentration above the mutant prevention concentration at time with in mutant selection window of 100%
Escherichia coli [20] = test: Bactericidal activity against marbofloxacin-susceptible Escherichia coli ATCC 25922 assessed as final bacterial count using inoculum size of 10^9CFU/mL inside the mutant selection window for 25% of time
Escherichia coli [21] = test: Bactericidal activity against marbofloxacin-susceptible Escherichia coli ATCC 25922 assessed as final bacterial count using inoculum size of 10^5 CFU/mL inside the mutant selection window for 100% of time
Escherichia coli [22] = test: Bactericidal activity against marbofloxacin-susceptible Escherichia coli ATCC 25922 assessed as area between the control curve and time kill curve using inoculum size of 10^5 CFU/mL inside the mutant selection window for 100% of time
Escherichia coli [23] = test: Bactericidal activity against marbofloxacin-resistant Escherichia coli ATCC 25922 assessed as area between the control curve and time kill curve using inoculum size of 10^7 CFU/mL inside the mutant selection window for 100% of time
Escherichia coli [24] = test: Bactericidal activity against marbofloxacin-susceptible Escherichia coli ATCC 25922 assessed as final bacterial count using inoculum size of 10^7 CFU/mL inside the mutant selection window for 25% of time
[25] = Effect on Escherichia coli ATCC 25922 assessed as time at which drug concentration above the mutant prevention concentration at time with in mutant selection window of 0%
Escherichia coli [26] = test: Bactericidal activity against marbofloxacin-resistant Escherichia coli ATCC 25922 assessed as final bacterial count using inoculum size of 10^7 CFU/mL inside the mutant selection window for 100% of time
[27] = T>MIC in Escherichia coli ATCC 25922 at time with in mutant selection window of 100%
Escherichia coli [28] = test: Bactericidal activity against marbofloxacin-resistant Escherichia coli ATCC 25922 assessed as area between the control curve and time kill curve using inoculum size of 10^9 CFU/mL inside the mutant selection window for 100% of time
Escherichia coli [29] = test: Bactericidal activity against marbofloxacin-resistant Escherichia coli ATCC 25922 assessed as final bacterial count using inoculum size of 10^9 CFU/mL inside the mutant selection window for 100% of time
Escherichia coli [30] = test: Bactericidal activity against marbofloxacin-resistant Escherichia coli ATCC 25922 assessed as area between the control curve and time kill curve using inoculum size of 10^5 CFU/mL inside the mutant selection window for 100% of time

Compound `CN1CCN(c2c(F)cc3c(=O)c(C(=O)O)cn4c3c2OCN4C)CC1` [MARBOFLOXACIN] has a T>MIC [1] of 100%, a CFU (Escherichia coli [2]) of 1 ×10⁴ /ml and an ABBC (Escherichia coli [3]) of 51 log10CFU/ml/hr. It also gave a CFU (Escherichia coli [4]) of 7 ×10⁴ /ml, an ABBC (Escherichia coli [5]) of 53 log10CFU/ml/hr and an ABBC (Escherichia coli [6]) of 56 log10CFU/ml/hr. The T>MIC [7] was 100%, the ABBC (Escherichia coli [8]) was 54 log10CFU/ml/hr and the ABBC (Escherichia coli [9]) was 60 log10CFU/ml/hr. For the same compound, the CFU (Escherichia coli [10]) was 6 ×10⁴ /ml, the CFU (Escherichia coli [11]) was 2 ×10⁴ /ml and the MIC (Escherichia coli [12]) was 8 ng/mL (≈ 0.0221 µM). The Activity [13] was 75%, the CFU (Escherichia coli [14]) was 1 ×10⁸ /ml and the CFU (Escherichia coli [15]) was 7 ×10³ /ml. The ABBC (Escherichia coli [16]) was 57 log10CFU/ml/hr, the ABBC (Escherichia coli [17]) was 54 log10CFU/ml/hr and the Activity (Escherichia coli [18]) was 0.256 µg/mL. For the same compound, the Activity [19] was 0%, the CFU (Escherichia coli [20]) was 3 ×10⁴ /ml and the CFU (Escherichia coli [21]) was 2 ×10⁶ /ml. For the same compound, the ABBC (Escherichia coli [22]) was 53 log10CFU/ml/hr, the ABBC (Escherichia coli [23]) was 56 log10CFU/ml/hr and the CFU (Escherichia coli [24]) was 8 ×10⁴ /ml. For the same compound, the Activity [25] was 100%, the CFU (Escherichia coli [26]) was 6 ×10⁸ /ml and the T>MIC [27] was 100%. The ABBC (Escherichia coli [28]) was 44 log10CFU/ml/hr, the CFU (Escherichia coli [29]) was 5 ×10⁷ /ml and the ABBC (Escherichia coli [30]) was 51 log10CFU/ml/hr.
